# Source: patent US12071624B2, “Antisense oligonucleotide targeting ARL4C molecule, and nucleic acid drug using antisense oligonucleotide” (OSAKA UNIVERSITY, priority 2018, dated 2024)
# System: ARL4C mRNA
# Test: Screening of ARL4C ASO knockdown efficiency by real-time PCR in A549 cells
# Assay type: cell-based, human
# Details: screening of 38 types of ARL4C ASOs
# Procedure: HLE cells, HCT116 cells, and A549 cells were transfected with 25 to 50 nM ASO and 10 to 20 nM siRNA using Lipofectamine 3000 (Invitrogen, Carlsbad, CA, USA) or RNAiMAX (Invitrogen). Transfected cells were used in the experiments 36 to 48 hours after the end of the transfection.
# Cell migration assays and quantitative real-time PCR analyses were performed according to the methods reported by Fujii S et al. (Oncogene 2015; 34: 4834-44).
# First, base sequences of 15-nucleotide ARL4C were selected based on the structure of ARL4C mRNA. From thousands of ARL4C ASO candidates, those that may cause hepatotoxicity were excluded, and 38 types of ARL4C ASOs (those other than ASO-1312, ASO-1450 and ASO-3223 among the ASOs in Table 1) were selected, by high-dimensional structure prediction of ARL4C mRNA. The ASOs used in this test were those in which all of the phosphodiester bonds were substituted with phosphorothioate bonds. Knockdown efficiencies of ARL4C ASOs in A549 cells (lung adenocarcinoma cells) were investigated by screening experiments using real-time PCR. It has been confirmed that the protein abundance of ARL4C in A549 cells is reduced by treatment with ARL4C siRNA. The ARL4C mRNA amounts in A549 cells treated with 38 types of ARL4C ASOs were measured, and the results are shown in (a) of FIG. 3.
substance,measurement,value
"ASO-1316: 15-mer AmNA/phosphorothioate ASO targeting ARL4C, base sequence SEQ ID NO: 1 gcatacctcaggtaa; Table 1 SEQ ID NO 13 (antisense GCATACCTCAGGTAA; AmNA and phosphorothioate modified, pattern not given here)",knockdown efficiency (ARL4C mRNA amount),high knockdown efficiencies
